In ChEMBL document CHEMBL1125529, “NMDA antagonist activity of (+/-)-(2SR,4RS)-4-(1H-tetrazol-5-ylmethyl)piperidine-2-carboxylic acid resides with the (-)-2R,4S-isomer” (J Med Chem, 1992):

Experiments:
Glutamate NMDA receptor [1] = assay: Compound was tested for the antagonistic activity against depolarizations due to NMDA using rat cortical slice preparation; assay type: functional
Glutamate NMDA receptor [2] = assay: Ability to inhibit [3H]-CGS- 19755 binding to NMDA receptor; assay type: protein-complex assay

IC50 (Glutamate NMDA receptor [1])	IC50 (Glutamate NMDA receptor [2])	SMILES
4200 nM	107 nM	O=C(O)[C@H]1C[C@@H](Cc2nnn[nH]2)CCN1 (racemic)
1900 nM	67 nM	O=C(O)[C@H]1C[C@@H](Cc2nnn[nH]2)CCN1 (stereo in doubt)
39100 nM	2390 nM	O=C(O)[C@H]1C[C@@H](Cc2nnn[nH]2)CCN1 (stereo in doubt; (+)-1)
